Reference: patent US20210323976A1, “HETEROARYL COMPOUNDS FOR KINASE INHIBITION” (ARIAD Pharmaceuticals, Inc., priority 2015, published 2021)

Legend:
Format in all cases: cell-based
[1] = target: T1, EGFR exon 21 L858R and T790M mutation (Homo sapiens, UniProt P00533, L858R/T790M); experiment: Ba/F3-EGFR L858R/T790M cell anti-proliferation assay (MTS); conditions: Ba/F3-EGFR L858R/T790M cells, 72 h, MTS signal
T1 construct: expressed in transfected cells; host or cells: Ba/F3 (murine pro-B) cells, lentiviral transduction with pLVX-IRES puro
T1 sequence (P00533 25-1210 T790M/L858R): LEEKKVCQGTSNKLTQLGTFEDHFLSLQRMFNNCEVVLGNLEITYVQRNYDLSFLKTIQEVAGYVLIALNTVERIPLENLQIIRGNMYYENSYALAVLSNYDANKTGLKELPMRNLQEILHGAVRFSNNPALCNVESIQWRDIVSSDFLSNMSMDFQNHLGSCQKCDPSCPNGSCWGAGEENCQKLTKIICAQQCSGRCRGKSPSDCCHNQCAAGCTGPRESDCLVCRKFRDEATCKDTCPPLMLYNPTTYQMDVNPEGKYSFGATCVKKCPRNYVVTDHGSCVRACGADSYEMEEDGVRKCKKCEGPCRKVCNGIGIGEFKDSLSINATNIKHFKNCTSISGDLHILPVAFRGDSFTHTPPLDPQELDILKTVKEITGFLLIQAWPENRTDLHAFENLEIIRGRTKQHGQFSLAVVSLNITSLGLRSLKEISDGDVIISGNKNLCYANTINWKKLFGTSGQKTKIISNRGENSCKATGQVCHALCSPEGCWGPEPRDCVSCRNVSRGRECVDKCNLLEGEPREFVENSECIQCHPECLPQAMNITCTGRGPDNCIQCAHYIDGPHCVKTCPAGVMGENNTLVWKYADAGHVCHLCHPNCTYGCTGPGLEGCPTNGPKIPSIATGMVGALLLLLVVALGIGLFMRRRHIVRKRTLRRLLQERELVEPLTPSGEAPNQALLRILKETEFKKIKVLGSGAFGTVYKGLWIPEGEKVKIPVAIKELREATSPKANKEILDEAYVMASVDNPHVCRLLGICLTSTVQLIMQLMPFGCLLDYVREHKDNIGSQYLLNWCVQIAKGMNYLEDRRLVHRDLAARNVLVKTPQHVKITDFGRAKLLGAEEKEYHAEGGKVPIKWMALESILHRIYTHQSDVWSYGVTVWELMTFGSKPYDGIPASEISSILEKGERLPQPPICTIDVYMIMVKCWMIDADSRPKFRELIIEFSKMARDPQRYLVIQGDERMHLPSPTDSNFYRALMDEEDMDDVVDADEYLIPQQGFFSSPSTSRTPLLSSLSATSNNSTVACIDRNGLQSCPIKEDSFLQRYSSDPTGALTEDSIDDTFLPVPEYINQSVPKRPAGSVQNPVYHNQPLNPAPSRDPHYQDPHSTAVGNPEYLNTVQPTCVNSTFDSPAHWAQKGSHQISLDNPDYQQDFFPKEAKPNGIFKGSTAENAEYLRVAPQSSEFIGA
Source text: A compound's ability in selectively inhibiting EGFR L858R and T790M concurrent mutations can be assessed using Ba/F3 cells, a murine pro-B cell line, which have been transduced with EGFR L858R and T790M double mutations. An expression vector, pLVX-IRES puro (Clontech) coding for human EGFR L858R and T790M double mutation, was transfected into HEK293 cells by the Trans-Lentiviral ORF Packaging System (Thermo Scientific), to produce virus encoding EGFR L858R and T790M double mutations. Ba/F3 (DSMZ) cells maintained in RPM11640 medium supplemented with 10% fetal bovine serum, 200 pM L-glutamine/200 μg/mL penicillin/200 μg/mL streptomycin (Life Technology) and 10 ng/mL IL-3 (R&D system), were infected by EGFR L858R and T790M double mutation virus and subsequently selected by puromycin (Life Technology) selection and IL-3 depletion. Ba/F3 cells expressing EGFR L858R and T790M double mutation (named Ba/F3-EGFR L858R/T790M) can proliferate in the absence of IL-3. The anti-proliferative activity of compounds was determined as follows: BaF3-EGFR L858R/T790M cells seeded in 96 well plates (2500 cells/well) were treated with test compound (dissolved in DMSO) at a series of concentrations (4-fold dilution, top concentration: 10,000 nM). The plates were incubated for 72 h in a 37° C. incubator with 5% CO2, and the number of viable cells in each well were measured indirectly by CellTiter 96® Aqueous One Solution Cell Proliferation Assay (Promega; this assay is a colorimetric method for determining the number of viable cells through measurement of their metabolic activity by detection of enzymatic conversion of tetrazolium salts into blue formazan derivatives). Reagent (20 pL) was added into each well, and the plates were returned to the incubator for 2 h. The absorbance in each well was then measured at 490 nm using an Envision plate reader (Perkin Elmer). IC50 values were calculated by determining the concentration of compound required to decrease the MTS signal by 50% comparing to the DMSO control in best-fit curves using Microsoft XLfit software or Accelrys Pipeline Pilot.

[2] = target: T2, Her2 exon 20 YVMA insertion (A775_G776ins YVMA) (Homo sapiens, UniProt P04626, INS775YVMA); experiment: Ba/F3-Her2 Exon20 YVMA cell anti-proliferation assay (MTS); conditions: Ba/F3-Her2 Exon20 YVMA cells, 72 h, MTS signal
T2 construct: expressed in transfected cells; host or cells: Ba/F3 (murine pro-B) cells, lentiviral transduction with pLVX-IRES puro
T2 sequence (P04626 with tags, fused parts or gaps INS775YVMA): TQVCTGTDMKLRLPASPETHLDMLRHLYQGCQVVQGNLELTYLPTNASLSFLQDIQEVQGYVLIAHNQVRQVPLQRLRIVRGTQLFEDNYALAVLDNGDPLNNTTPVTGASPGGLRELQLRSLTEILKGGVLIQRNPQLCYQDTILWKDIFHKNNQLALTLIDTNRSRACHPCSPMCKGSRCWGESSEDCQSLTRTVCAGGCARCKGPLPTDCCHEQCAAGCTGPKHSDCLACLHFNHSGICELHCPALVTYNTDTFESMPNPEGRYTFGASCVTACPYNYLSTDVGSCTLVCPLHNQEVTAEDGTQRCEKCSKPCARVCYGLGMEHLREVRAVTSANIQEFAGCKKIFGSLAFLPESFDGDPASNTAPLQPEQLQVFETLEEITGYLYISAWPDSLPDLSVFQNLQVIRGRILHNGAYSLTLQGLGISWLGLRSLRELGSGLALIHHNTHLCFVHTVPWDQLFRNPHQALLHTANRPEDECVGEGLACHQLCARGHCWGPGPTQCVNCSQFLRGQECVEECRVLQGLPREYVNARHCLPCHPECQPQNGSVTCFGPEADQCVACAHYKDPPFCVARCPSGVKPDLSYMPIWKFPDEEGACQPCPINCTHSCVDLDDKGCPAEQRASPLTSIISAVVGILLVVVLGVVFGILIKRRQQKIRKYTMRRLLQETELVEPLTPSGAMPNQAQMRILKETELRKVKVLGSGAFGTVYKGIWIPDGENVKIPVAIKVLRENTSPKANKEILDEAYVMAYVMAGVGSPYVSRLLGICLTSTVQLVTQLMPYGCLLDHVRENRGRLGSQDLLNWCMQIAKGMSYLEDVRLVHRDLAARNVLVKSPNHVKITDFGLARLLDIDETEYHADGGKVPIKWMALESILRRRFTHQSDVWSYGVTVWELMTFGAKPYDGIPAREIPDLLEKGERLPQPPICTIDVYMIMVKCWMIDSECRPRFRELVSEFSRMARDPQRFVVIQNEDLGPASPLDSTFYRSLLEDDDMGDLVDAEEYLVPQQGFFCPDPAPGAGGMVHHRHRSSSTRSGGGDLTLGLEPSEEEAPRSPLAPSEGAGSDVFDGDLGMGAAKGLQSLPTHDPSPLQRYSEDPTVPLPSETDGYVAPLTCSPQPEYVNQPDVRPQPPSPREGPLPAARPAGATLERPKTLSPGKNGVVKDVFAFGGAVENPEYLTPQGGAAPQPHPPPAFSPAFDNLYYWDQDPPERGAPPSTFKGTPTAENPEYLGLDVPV
Source text: A compound's ability in selectively inhibiting Her2 exon 20 YVMA insertion mutations can be assessed using Ba/F3 cells, a murine pro-B cell line, which have been transduced with Her2 Exon20 YVMA insertions. An expression vector, pLVX-IRES puro (Clontech) coding for human EGFR exon 20 insertions YVMA (A775_G776ins YVMA), was transfected into HEK293 cells by the Trans-Lentiviral ORF Packaging System (Thermo Scientific), to produce virus encoding EGFR exon 20 insertions. Ba/F3 (DSMZ) cells maintained in RPM11640 medium supplemented with 10% fetal bovine serum, 200 pM L-glutamine/200 μg/mL penicillin/200 μg/mL streptomycin (Life Technology) and 10 ng/mL IL-3 (R&D system), were infected by EGFR Exon20 virus and subsequently selected by puromycin (Life Technology) selection and IL-3 depletion. Ba/F3 cells expressing Her2 Exon20 YVMA insertions (named Ba/F3-Her2 Exon20 YVMA) can proliferate in the absence of IL-3. The anti-proliferative activity of compounds was determined as follows: BaF3-Her2 Exon20 YVMA cells seeded in 96 well plates (2500 cells/well) were treated with test compound (dissolved in DMSO) at a series of concentrations (4-fold dilution, top concentration: 10,000 nM). The plates were incubated for 72 h in a 37° C. incubator with 5% CO2, and the number of viable cells in each well were measured indirectly by CellTiter 96® Aqueous One Solution Cell Proliferation Assay (Promega; this assay is a colorimetric method for determining the number of viable cells through measurement of their metabolic activity by detection of enzymatic conversion of tetrazolium salts into blue formazan derivatives). Reagent (20 pL) was added into each well, and the plates were returned to the incubator for 2 h. The absorbance in each well was then measured at 490 nm using an Envision plate reader (Perkin Elmer). IC50 values were calculated by determining the concentration of compound required to decrease the MTS signal by 50% comparing to the DMSO control in best-fit curves using Microsoft XLfit software or Accelrys Pipeline Pilot.

[3] = target: T3, EGFR exon 19 deletion (E746-A750) and T790M mutation (Homo sapiens, UniProt P00533, DEL746-750/T790M); experiment: Ba/F3-EGFR-Del/T790M cell anti-proliferation assay (MTS); conditions: Ba/F3-EGFR-Del/T790M cells, 72 h, MTS signal
T3 construct: expressed in transfected cells; host or cells: Ba/F3 (murine pro-B) cells, lentiviral transduction with pLVX-IRES puro
T3 sequence (P00533 with tags, fused parts or gaps DEL746-750/T790M): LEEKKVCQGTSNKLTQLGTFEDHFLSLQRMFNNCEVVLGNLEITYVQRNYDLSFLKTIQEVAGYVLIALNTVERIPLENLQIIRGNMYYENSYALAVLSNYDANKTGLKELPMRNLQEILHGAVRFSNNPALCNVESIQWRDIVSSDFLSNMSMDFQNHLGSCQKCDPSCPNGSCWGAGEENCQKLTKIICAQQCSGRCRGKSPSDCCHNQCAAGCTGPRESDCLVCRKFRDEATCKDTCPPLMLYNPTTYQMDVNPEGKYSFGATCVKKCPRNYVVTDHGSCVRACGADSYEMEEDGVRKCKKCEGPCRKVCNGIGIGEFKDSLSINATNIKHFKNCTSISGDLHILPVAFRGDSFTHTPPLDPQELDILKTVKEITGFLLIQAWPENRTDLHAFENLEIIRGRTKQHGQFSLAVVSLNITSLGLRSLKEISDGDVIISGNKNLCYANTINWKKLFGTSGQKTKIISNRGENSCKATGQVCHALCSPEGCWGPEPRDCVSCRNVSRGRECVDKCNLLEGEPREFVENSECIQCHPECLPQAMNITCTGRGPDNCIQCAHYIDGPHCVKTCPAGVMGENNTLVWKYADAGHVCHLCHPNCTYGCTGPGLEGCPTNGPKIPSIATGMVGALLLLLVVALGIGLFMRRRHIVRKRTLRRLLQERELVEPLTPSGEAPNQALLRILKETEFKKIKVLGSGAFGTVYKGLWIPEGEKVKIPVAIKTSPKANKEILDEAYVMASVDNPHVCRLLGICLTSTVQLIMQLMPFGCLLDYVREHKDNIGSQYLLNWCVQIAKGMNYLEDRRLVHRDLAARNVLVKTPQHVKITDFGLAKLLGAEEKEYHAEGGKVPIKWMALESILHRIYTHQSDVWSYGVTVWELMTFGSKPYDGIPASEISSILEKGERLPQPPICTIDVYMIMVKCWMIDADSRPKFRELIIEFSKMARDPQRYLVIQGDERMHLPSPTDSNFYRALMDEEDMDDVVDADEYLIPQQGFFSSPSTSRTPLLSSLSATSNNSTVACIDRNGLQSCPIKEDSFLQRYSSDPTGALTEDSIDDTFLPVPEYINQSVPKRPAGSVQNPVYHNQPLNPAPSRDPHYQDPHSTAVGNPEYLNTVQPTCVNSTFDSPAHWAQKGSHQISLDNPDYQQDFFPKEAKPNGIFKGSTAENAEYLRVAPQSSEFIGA
Source text: A compound's ability in selectively inhibiting EGFR exon 19 deletion and T790M concurrent mutations can be assessed using Ba/F3 cells, a murine pro-B cell line, which have been transduced with EGFR exon 19 deletion and T790M mutation. An expression vector, pLVX-IRES puro (Clontech) coding for human EGFR E746-A750 deletion and T790M Mutation, was transfected into HEK293 cells by the Trans-Lentiviral ORF Packaging System (Thermo Scientific), to produce virus encoding EGFR exon 19 deletion and T790M mutations. Ba/F3 (DSMZ) cells maintained in RPM11640 medium supplemented with 10% fetal bovine serum, 200 pM L-glutamine/200 μg/mL penicillin/200 μg/mL streptomycin (Life Technology) and 10 ng/mL IL-3 (R&D system), were infected by EGFR E746-A750 deletion and T790M Mutation virus and subsequently selected by puromycin (Life Technology) selection and IL-3 depletion. Ba/F3 cells expressing EGFR E746-A750 deletion and T790M Mutation (named Ba/F3-EGFR-Del/T790M) can proliferate in the absence of IL-3. The anti-proliferative activity of compounds was determined as follows: BaF3-EGFR-Del/T790M cells seeded in 96 well plates (2500 cells/well) were treated with test compound (dissolved in DMSO) at a series of concentrations (4-fold dilution, top concentration: 10,000 nM). The plates were incubated for 72 h in a 37° C. incubator with 5% CO2, and the number of viable cells in each well were measured indirectly by CellTiter 96® Aqueous One Solution Cell Proliferation Assay (Promega; this assay is a colorimetric method for determining the number of viable cells through measurement of their metabolic activity by detection of enzymatic conversion of tetrazolium salts into blue formazan derivatives). Reagent (20 pL) was added into each well, and the plates were returned to the incubator for 2 h. The absorbance in each well was then measured at 490 nm using an Envision plate reader (Perkin Elmer). IC50 values were calculated by determining the concentration of compound required to decrease the MTS signal by 50% comparing to the DMSO control in best-fit curves using Microsoft XLfit software or Accelrys Pipeline Pilot.

SMILES	EGFR exon 21 L858R and T790M mutation IC50 [1]	IC50 [2]	EGFR exon 19 deletion and T790M mutation IC50 [3]
C=CC(=O)Nc1cc(Nc2nccc(-c3c4n(c5ccccc35)CCOC4)n2)c(OC)cc1N(C)CCN(C)C [Example 1, N-(5-((4-(3,4-dihydro-1H-[1,4]oxazino[4,3-a]indol-10-yl)pyrimidin-2-yl)amino)-2-((2-(dimethylamino)ethyl)(methyl)amino)-4-methoxyphenyl)acrylamide]	A (Group A compounds have an IC50 value for the indicated mutant below about 100 nM)	100 to 500 nM	A (Group A compounds have an IC50 value for the indicated mutant below about 100 nM)
C=CC(=O)Nc1cc(Nc2nccc(-c3c4n(c5ccccc35)CCN(C)C4=O)n2)c(OC)cc1N(C)CCN(C)C [Example 2, N-(2-((2-(dimethylamino)ethyl)(methyl)amino)-4-methoxy-5-((4-(2-methyl-1-oxo-1,2,3,4-tetrahydropyrazino[1,2-a]indol-10-yl)pyrimidin-2-yl)amino)phenyl)acrylamide]	A (Group A compounds have an IC50 value for the indicated mutant below about 100 nM)	> 1000 nM	A (Group A compounds have an IC50 value for the indicated mutant below about 100 nM)
C=CC(=O)Nc1cc(Nc2nccc(-c3c4n(c5ccccc35)CC(O)CC4)n2)c(OC)cc1N(C)CCN(C)C (stereo not drawn) [Example 3, N-(2-((2-(dimethylamino)ethyl)(methyl)amino)-5-((4-(7-hydroxy-6,7,8,9-tetrahydropyrido[1,2-a]indol-10-yl)pyrimidin-2-yl)amino)-4-methoxyphenyl)acrylamide]	A (Group A compounds have an IC50 value for the indicated mutant below about 100 nM)	100 to 500 nM	A (Group A compounds have an IC50 value for the indicated mutant below about 100 nM)
C=CC(=O)Nc1cc(Nc2nccc(-c3c4n(c5ccccc35)CC3OC(C)(C)OC3C4)n2)c(OC)cc1N(C)CCN(C)C (stereo not drawn) [Example 4, N-(5-((4-(cis-2,2-dimethyl-3a,4,11,11a-tetrahydro-[1,3]dioxolo[4′,5′:4,5]pyrido[1,2-a]indol-10-yl)pyrimidin-2-yl)amino)-2-((2-(dimethylamino)ethyl)(methyl)amino)-4-methoxyphenyl)acrylamide]	A (Group A compounds have an IC50 value for the indicated mutant below about 100 nM)	< 100 nM	A (Group A compounds have an IC50 value for the indicated mutant below about 100 nM)
C=CC(=O)Nc1cc(Nc2nccc(-c3c4n(c5ccccc35)CCCC4)n2)c(OC)cc1N(C)CCN(C)C [Example 5, N-(2-((2-(dimethylamino)ethyl)(methyl)amino)-4-methoxy-5-((4-(6,7,8,9-tetrahydropyrido[1,2-a]indol-10-yl)pyrimidin-2-yl)amino)phenyl)acrylamide]	A (Group A compounds have an IC50 value for the indicated mutant below about 100 nM)	100 to 500 nM	A (Group A compounds have an IC50 value for the indicated mutant below about 100 nM)
C=CC(=O)Nc1cc(Nc2nccc(-c3c4n(c5ccccc35)CC(O)C(O)C4)n2)c(OC)cc1N(C)CCN(C)C (stereo not drawn) [Example 6, N-(5-((4-(cis-7,8-dihydroxy-6,7,8,9-tetrahydropyrido[1,2-a]indol-10-yl)pyrimidin-2-yl)amino)-2-((2-(dimethylamino)ethyl)(methyl)amino)-4-methoxyphenyl)acrylamide]	A (Group A compounds have an IC50 value for the indicated mutant below about 100 nM)	100 to 500 nM	A (Group A compounds have an IC50 value for the indicated mutant below about 100 nM)
C=CC(=O)Nc1cc(Nc2nccc(-c3c4n(c5ccccc35)CC(OC)CC4)n2)c(OC)cc1N(C)CCN(C)C (stereo not drawn) [Example 7, N-(2-((2-(dimethylamino)ethyl)(methyl)amino)-4-methoxy-5-((4-(7-methoxy-6,7,8,9-tetrahydropyrido[1,2-a]indol-10-yl)pyrimidin-2-yl)amino)phenyl)acrylamide]	A (Group A compounds have an IC50 value for the indicated mutant below about 100 nM)	100 to 500 nM	A (Group A compounds have an IC50 value for the indicated mutant below about 100 nM)
C=CC(=O)Nc1cc(Nc2nccc(-n3c4c(c5ccccc53)CC(O)CC4)n2)c(OC)cc1N(C)CCN(C)C (stereo not drawn) [Example 10, N-(2-((2-(dimethylamino)ethyl)(methyl)amino)-5-((4-(3-hydroxy-1,2,3,4-tetrahydro-9H-carbazol-9-yl)pyrimidin-2-yl)amino)-4-methoxyphenyl)acrylamide]	A (Group A compounds have an IC50 value for the indicated mutant below about 100 nM)	< 100 nM	A (Group A compounds have an IC50 value for the indicated mutant below about 100 nM)
